PubChem BioAssay (NCI)
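Test compounds were applied to cells in 96-well plates for 48 hours at 5 doses. At the TGI there is no net growth.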 Where a SMILES comes first, the peptide text is derived from it. [ ]: non-standard residue; d: D form. The star is where a group is joined. Hyp = O=C(O)[CH]1C[CH](O)CN1; Cbz = O=C(OCc1ccccc1)*

What was measured:
Test in all cases: NCI tumour cell line growth inhibition, 48 h
HCT-116 colon = test system: HCT-116 colon
CCRF-CEM leukemia = test system: CCRF-CEM leukemia
HL-60(TB) leukemia = test system: HL-60(TB) leukemia
HS 578T breast = test system: HS 578T breast
LOX IMVI melanoma = test system: LOX IMVI melanoma
COLO 205 colon = test system: COLO 205 colon
M14 melanoma = test system: M14 melanoma
MDA-N = test system: MDA-N
UACC-62 melanoma = test system: UACC-62 melanoma
A498 renal = test system: A498 renal
MCF7 breast = test system: MCF7 breast
HCT-15 colon = test system: HCT-15 colon
MDA-MB-231 breast = test system: MDA-MB-231 breast
OVCAR-4 ovarian = test system: OVCAR-4 ovarian
MOLT-4 leukemia = test system: MOLT-4 leukemia
UACC-257 melanoma = test system: UACC-257 melanoma
SK-MEL-28 melanoma = test system: SK-MEL-28 melanoma
UO-31 renal = test system: UO-31 renal
NCI-H522 lung = test system: NCI-H522 lung
IGROV1 ovarian = test system: IGROV1 ovarian
MDA-MB-435 = test system: MDA-MB-435
SF-268 CNS = test system: SF-268 CNS
SF-295 CNS = test system: SF-295 CNS
MALME-3M melanoma = test system: MALME-3M melanoma
SR leukemia = test system: SR leukemia
OVCAR-3 ovarian = test system: OVCAR-3 ovarian
EKVX NSCLC = test system: EKVX NSCLC
HOP-62 NSCLC = test system: HOP-62 NSCLC
786-0 renal = test system: 786-0 renal
SK-OV-3 ovarian = test system: SK-OV-3 ovarian
ACHN renal = test system: ACHN renal
RXF 393 renal = test system: RXF 393 renal
SK-MEL-5 melanoma = test system: SK-MEL-5 melanoma
TK-10 renal = test system: TK-10 renal
U251 CNS = test system: U251 CNS
BT-549 breast = test system: BT-549 breast
SN12C renal = test system: SN12C renal
SNB-75 CNS = test system: SNB-75 CNS
SW-620 colon = test system: SW-620 colon
DU-145 prostate = test system: DU-145 prostate
A549 NSCLC = test system: A549 NSCLC
SK-MEL-2 melanoma = test system: SK-MEL-2 melanoma
NCI/ADR-RES ovarian = test system: NCI/ADR-RES ovarian
NCI-H23 lung = test system: NCI-H23 lung
T-47D breast = test system: T-47D breast
RPMI-8226 leukemia = test system: RPMI-8226 leukemia
NCI-H460 lung = test system: NCI-H460 lung
KM12 colon = test system: KM12 colon
OVCAR-5 ovarian = test system: OVCAR-5 ovarian
HT29 colon = test system: HT29 colon
SNB-19 CNS = test system: SNB-19 CNS
K-562 leukemia = test system: K-562 leukemia
PC-3 prostate = test system: PC-3 prostate
HCC-2998 colon = test system: HCC-2998 colon
NCI-H226 lung = test system: NCI-H226 lung
OVCAR-8 ovarian = test system: OVCAR-8 ovarian

Measured: TGI

NC(=O)CNC(=O)C1CC(O)CN1C(=O)C1CCCN1C(=O)OCc1ccccc1 (stereo not drawn) (Cbz-Pro-[Hyp]-Gly-NH2; configuration not given here)
> 100 µM: HCT-116 colon | CCRF-CEM leukemia | HL-60(TB) leukemia | HS 578T breast | LOX IMVI melanoma | COLO 205 colon | M14 melanoma | MDA-N | UACC-62 melanoma | A498 renal | MCF7 breast | HCT-15 colon | MDA-MB-231 breast | OVCAR-4 ovarian | MOLT-4 leukemia | UACC-257 melanoma | SK-MEL-28 melanoma | UO-31 renal | NCI-H522 lung | IGROV1 ovarian | MDA-MB-435 | SF-268 CNS | SF-295 CNS | MALME-3M melanoma | SR leukemia | OVCAR-3 ovarian | EKVX NSCLC | HOP-62 NSCLC | 786-0 renal | SK-OV-3 ovarian | ACHN renal | RXF 393 renal | SK-MEL-5 melanoma | TK-10 renal | U251 CNS | BT-549 breast | SN12C renal | SNB-75 CNS | SW-620 colon | DU-145 prostate | A549 NSCLC | SK-MEL-2 melanoma | NCI/ADR-RES ovarian | NCI-H23 lung | T-47D breast | RPMI-8226 leukemia | NCI-H460 lung | KM12 colon | OVCAR-5 ovarian | HT29 colon | SNB-19 CNS | K-562 leukemia | PC-3 prostate | HCC-2998 colon | NCI-H226 lung | OVCAR-8 ovarian
